Test results from the NIST ThermoML archive (doi:10.1016/j.jct.2012.03.022).
Numbers after ± are expanded uncertainties.

Conditions: Liquid, Closed cell (Static) method

vapor or sublimation pressure (258.15 K): 148.6 ± 1 kPa
vapor or sublimation pressure (268.15 K): 219.4 ± 1.1 kPa
vapor or sublimation pressure (278.15 K): 314.1 ± 1.1 kPa
vapor or sublimation pressure (288.15 K): 437.8 ± 1.2 kPa
Compound: CC(F)F [1,1-difluoroethane]
